The target in one assay is human TRPA1 (Homo sapiens (Human), UniProt O75762). Kind of assay: Inhibitory activity on human TRPA1 by conventional patch clamp assay. The format is cell-based. The settings on record: for inhibition at 5 µM: read-out: TRPA1 % Inhibition rate (5 μM); for IC50: HEK293 human TRPA1, 100 μM cinnamaldehyde. The text has this: 2. Inhibitory Activity on Human TRPA1 by Conventional Patch Clamp Assay
In order to compare the influences of different measuring methods on the inhibitory activity of compounds, a conventional patch clamp method was used to further measure the inhibitory activity of compounds 1, 11, 31, 50, and 78 on TRPA1. The principle and procedures of the conventional patch clamp assay could be found in the literature report of Chen et al [Chen et al. Pain 2011, 152(5):1165-72].
Evaluation of TRPA1 inhibitory activity of compounds was conducted using the HEK293 recombinant cell strain (Creative Biogene, NY) stably expressing human TRPA1. Cells were cultured in a DMEM/F12 (3:1, Thermo Fisher Scientific) medium (containing 5% calf serum, 2 mM glutamine and 20 mM HEPES) in an incubator at 37° C. and air humidity containing 5% CO2.
(§1) During the experiment, the adherent cells were placed in a recording room under the inverted microscope. All experiments were performed at room temperature. Each cell itself was used as a control thereof.
Test compounds at a final concentration were all prepared on the testing day and then dissolved in the extracellular fluid. The extracellular fluid was (mM): NaCl, 137; KCl, 4; CaCl2, 1.8; MgCl2, 1; HEPES, 10; glucose 10; pH 7.4 (NaOH titration). All the solutions of the test compounds and control compounds contained 0.3% DMSO.
The compounds were all perfused with a perfusion system by virtue of their own gravity. At least two cells were tested for each concentration of the compound. After the current became stable, the variation in magnitude of the current before and after the compound was used to calculate the blocking effect of the compound. 100 μM cinnamaldehyde was used as the positive control.
The cells were transferred to the perfusion tank and perfused with extracellular fluid. The intracellular fluid was: 130 mM K-aspartate; 5 mM MgCl2; 5 mM EGTA; 10 mM
HEPES; pH 7.2 (KOH titration). The intracellular fluid was stored in a small amount in a −80 degree refrigerator in batches, and thawed on the day of the experiment. The electrode was pulled with PC-10 (Narishige, Japan). Whole-cell patch clamp recording was adopted and noise was filtered at one-fifth of the sampling frequency.
The cells were clamped at 20 mV, and then depolarized to 80 mV with a square wave of 500 milliseconds to obtain the TRPA1 current (see FIG. 1).
This procedure was repeated every 3 seconds. Cells were patched in a normal extracellular fluid, current A was obtained via voltage procedure testing, and then perfusion was conducted with an extracellular fluid added with 100 μM cinnamaldehyde to activate TRPA1 current to obtain current B. After the current stabilized, elution was conducted with normal extracellular fluid and perfusion was conducted with an extracellular fluid added with 100 μM cinnamaldehyde and a compound at various concentrations to obtain current C. Finally, blocking rate of the compound was obtained according to […], see FIG. 2.
Data collection and analysis was conducted using pCLAMP 10 (Molecular Devices, Union City, CA). Current stabilization meant that the variation in the current with time was within a limited range. The magnitude of the current after stabilization was used to reflect the effect of the compound in this process.

The target in the next assay is human TRPC6 (Homo sapiens (Human), UniProt Q9Y210). Put plainly: Inhibitory activity on human TRPC6 by conventional patch clamp assay. The format is cell-based. The settings on record: HEK293 human TRPC6, read-out: TRPC6 Inhibition rate (5 μM). As for the experimental part:
3. Inhibitory Activity on Human TRPC6 by Conventional Patch Clamp Assay
In order to test the selectivity of the compounds in TRPA1 inhibition, a conventional patch clamp method was used to further measure the inhibitory activity of compounds on TRPC6. The principle and procedures of the conventional patch clamp assay could be found in the literature report of Ambrus et al [Ambrus et al. J Cell and Mol Med 2015, 19 (12):2771-9].
Evaluation of TRPC6 inhibitory activity of compounds was conducted using the HEK293 recombinant cell strain (Creative Biogene, NY) stably expressing human TRPC6. Cells were cultured in a DMEM/F12 (3:1, Thermo Fisher Scientific) medium (containing 5% calf serum, 2 mM glutamine and 20 mM HEPES) in an incubator at 37° C. and air humidity containing 5% CO2.
as §1
Test compounds at a final concentration were all prepared on the testing day and then dissolved in the extracellular fluid. The extracellular fluid was (mM): NaCl, 137; KCl, 4; CaCl2, 1.8; MgCl2, 1; HEPES, 10; glucose 10; pH 7.4 (NaOH titration). Low-Ca extracellular fluid was (mM): NaCl, 138.3; KCl, 4; CaCl2, 0.5; MgCl2, 1; HEPES, 10; glucose 10; pH 7.4 (NaOH titration). […]
For orientation: In patch-clamp work, channel activity is measured electrically.

Experimental findings from patent US12391660B2, “Heteroaromatic acetamide derivative, and preparation and use thereof” (Hangzhou Westan Pharmaceutical Technology Co., Ltd, priority 2019, dated 2025) are described below.

The term inhibition denotes the relative decrease from the control value, in per cent. In general, IC50 refers to the point on the concentration scale where inhibition reaches its midpoint.

Chain of human TRPA1 (O75762 whole entry): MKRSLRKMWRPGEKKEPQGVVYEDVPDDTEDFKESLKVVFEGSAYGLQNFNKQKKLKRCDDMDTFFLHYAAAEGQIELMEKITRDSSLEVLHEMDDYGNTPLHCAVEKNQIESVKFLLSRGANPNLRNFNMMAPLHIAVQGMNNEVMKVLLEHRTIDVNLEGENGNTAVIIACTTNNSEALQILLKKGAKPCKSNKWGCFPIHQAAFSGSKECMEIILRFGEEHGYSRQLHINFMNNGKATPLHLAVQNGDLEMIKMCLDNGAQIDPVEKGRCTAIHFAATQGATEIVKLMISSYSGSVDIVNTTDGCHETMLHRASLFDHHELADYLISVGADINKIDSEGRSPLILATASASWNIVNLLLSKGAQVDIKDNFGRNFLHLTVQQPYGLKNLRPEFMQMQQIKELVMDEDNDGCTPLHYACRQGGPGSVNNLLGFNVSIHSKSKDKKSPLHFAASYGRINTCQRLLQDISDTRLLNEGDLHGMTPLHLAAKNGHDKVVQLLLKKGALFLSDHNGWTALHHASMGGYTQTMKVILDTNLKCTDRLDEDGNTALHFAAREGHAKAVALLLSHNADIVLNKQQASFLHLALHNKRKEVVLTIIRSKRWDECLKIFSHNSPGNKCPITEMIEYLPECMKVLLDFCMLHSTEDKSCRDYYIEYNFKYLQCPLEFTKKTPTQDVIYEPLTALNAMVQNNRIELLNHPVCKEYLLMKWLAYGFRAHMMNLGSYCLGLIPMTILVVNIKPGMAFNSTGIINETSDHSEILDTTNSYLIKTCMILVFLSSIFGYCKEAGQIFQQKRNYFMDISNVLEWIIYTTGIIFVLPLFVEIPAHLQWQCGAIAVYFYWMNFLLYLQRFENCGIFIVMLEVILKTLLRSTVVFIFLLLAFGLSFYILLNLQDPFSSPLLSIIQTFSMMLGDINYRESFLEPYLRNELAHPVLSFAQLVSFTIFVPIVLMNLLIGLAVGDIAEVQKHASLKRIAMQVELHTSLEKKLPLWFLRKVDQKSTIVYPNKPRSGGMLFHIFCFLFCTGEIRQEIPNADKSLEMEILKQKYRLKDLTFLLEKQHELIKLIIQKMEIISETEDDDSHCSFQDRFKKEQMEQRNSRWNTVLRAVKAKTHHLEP
Chain of human TRPC6 (Q9Y210 whole entry): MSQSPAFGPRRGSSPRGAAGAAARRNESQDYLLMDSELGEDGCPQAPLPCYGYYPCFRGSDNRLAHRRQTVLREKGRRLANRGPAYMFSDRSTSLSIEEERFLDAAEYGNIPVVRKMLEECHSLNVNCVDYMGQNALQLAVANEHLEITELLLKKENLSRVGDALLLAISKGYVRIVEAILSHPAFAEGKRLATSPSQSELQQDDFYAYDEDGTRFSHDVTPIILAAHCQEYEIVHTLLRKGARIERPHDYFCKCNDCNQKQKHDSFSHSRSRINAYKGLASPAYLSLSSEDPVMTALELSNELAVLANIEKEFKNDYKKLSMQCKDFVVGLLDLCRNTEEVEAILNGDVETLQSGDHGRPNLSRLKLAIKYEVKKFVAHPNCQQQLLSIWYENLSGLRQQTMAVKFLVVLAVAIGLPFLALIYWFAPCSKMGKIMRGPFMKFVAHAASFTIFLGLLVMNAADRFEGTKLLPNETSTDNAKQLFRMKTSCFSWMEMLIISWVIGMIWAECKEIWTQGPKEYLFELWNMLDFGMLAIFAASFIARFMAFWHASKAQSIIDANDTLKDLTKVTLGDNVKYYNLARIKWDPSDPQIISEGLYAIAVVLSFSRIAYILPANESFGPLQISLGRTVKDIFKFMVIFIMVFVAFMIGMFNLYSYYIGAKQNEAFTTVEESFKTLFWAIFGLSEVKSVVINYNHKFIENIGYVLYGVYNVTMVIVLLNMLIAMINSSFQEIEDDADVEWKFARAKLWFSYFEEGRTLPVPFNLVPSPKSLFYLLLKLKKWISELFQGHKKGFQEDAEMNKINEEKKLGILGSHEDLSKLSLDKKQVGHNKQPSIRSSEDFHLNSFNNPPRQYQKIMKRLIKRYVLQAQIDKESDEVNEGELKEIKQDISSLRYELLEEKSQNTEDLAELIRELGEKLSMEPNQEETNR

Consider `N#Cc1ccc(NC2(C(=O)N3CCN(c4ccc(C(F)(F)F)cc4)CC3)CCCC2)cc1` [Compound 1, 4-((1-(4-(4-(trifluoromethyl)phenyl)piperazine-1-carbonyl)cyclopentyl)amino)benzonitrile], for which, on human TRPA1, the inhibition at 5 µM amounted to 99% and the IC50 worked out at 56 nM. Further, the inhibition at 5 µM on human TRPC6 is -60%.

Regarding `CC(C)(C)C1CCN(C(=O)C2(Nc3ccc(C#N)cc3)CCCC2)CC1` [Compound 31, 4-((1-(4-(tert-butyl)piperidine-1-carbonyl)cyclopentyl)amino)benzonitrile], the inhibition at 5 µM amounted to 117% at human TRPA1 and 26% at human TRPC6. The same compound showed an IC50 against human TRPA1 of 98 nM.
